One data set has as its target CYP3A4 (Homo sapiens, UniProt P08684). Kind of data set: CYP inhibition assay in pooled human liver microsomes (CYP3A4, midazolam). The data set is classed as in vitro ADME. Conditions: pH 7.4, probe midazolam (3 µM), 37 °C, read-out: CYP 3A4 half maximal inhibitory concentration (IC50). (Microsomes from liver hold many membrane-bound enzymes, among them those of drug oxidation.)

The target in a further data set is T1, CDK9/CyclinT1 (Homo sapiens, UniProt P50750).
T1 construct: purchased Wuxi Biortus BP480/792/691
In words: Kinase activity assay, ADP-Glo (CDK9/CyclinT1). The data set is classed as biochemical. Conditions: Table 18; read-out: CDK9/T1 IC50. As to the method: The starting concentration for the in vitro CDK (CDK2 and CDK9) kinase activity assay was 1 µM and was 3-fold diluted to a total of 10 concentrations, and each concentration was tested in duplicate. The compound PHA-793887 was used as a control compound.
A 1× kinase reaction buffer (40 mM Tris-HCl, pH 7.4, 20 mM […], 0.1 mg/mL BSA, 50 µM DTT), 1 volume of 5× kinase reaction buffer, and 4 volumes of water were prepared, and DTT (final concentration: 50 µM) was added. 50 nL of diluted compound working solution (final concentration of DMSO: 1%) was transferred to each well of a reaction plate (784075, Greiner) using Echo655. The reaction plate was sealed with a plate sealing film and centrifuged at 1000 g for 1 min. 2× enzyme (0.3 ng/µL CDK2/CyclinE1 or CDK9/CyclinT1) was prepared using the 1× kinase reaction buffer. 2.5 µL of the above kinase solution was added to each well. The reaction plate was sealed with a plate sealing film, centrifuged at 1000 g for 1 min, and left to stand at room temperature for 10 min. A mixture of 2× kinase substrate and ATP was prepared using the 1× kinase reaction buffer. 2× CDK2/CylinE1 kinase substrate was 0.4 mg/mL Histone H1 and 30 µM ATP. 2.5 µL of the mixture of 2× Histone H1 and ATP was added to the reaction plate. The plate was centrifuged at 1000 g for 30 s, and the reaction was started. […] The luminescence signals were obtained using Envision 2104. […]
A general note: ADP-Glo first removes unused ATP, then detects ADP through luciferase.

A further data set addresses T2, human PXR (Homo sapiens, UniProt O75469).
T2 construct: host or cells: DPX2 (HepG2 stably transfected)
T2 sequence (O75469 1-434): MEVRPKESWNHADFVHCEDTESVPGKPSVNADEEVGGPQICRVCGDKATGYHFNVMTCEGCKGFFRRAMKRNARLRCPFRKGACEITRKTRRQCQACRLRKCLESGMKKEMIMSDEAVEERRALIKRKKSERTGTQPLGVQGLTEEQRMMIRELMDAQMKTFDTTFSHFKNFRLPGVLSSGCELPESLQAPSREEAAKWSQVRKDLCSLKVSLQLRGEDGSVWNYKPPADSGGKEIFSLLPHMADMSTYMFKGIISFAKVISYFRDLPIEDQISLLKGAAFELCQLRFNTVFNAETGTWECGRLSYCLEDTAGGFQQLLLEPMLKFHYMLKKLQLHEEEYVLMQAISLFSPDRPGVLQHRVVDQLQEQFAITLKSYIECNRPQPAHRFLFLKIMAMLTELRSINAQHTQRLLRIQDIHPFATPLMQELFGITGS
In words: PXR induction assay in DPX2 cells (luciferase reporter). The data set is classed as cell-based. Conditions: for fold induction at 24 h, 0.123 µM: compound concentration 0.123 µM; for fold induction at 24 h, 10 µM: compound concentration 10.0 µM. Here is the method: • 1. […] The final concentration of DMSO was 0.1%. […] The reagent was gently and well mixed, and the mixture was incubated and well mixed at room temperature for 5 min.

What is called fold induction is the signal under treatment as a multiple of the control signal.

Sequence of CYP3A4 (P08684 2-503): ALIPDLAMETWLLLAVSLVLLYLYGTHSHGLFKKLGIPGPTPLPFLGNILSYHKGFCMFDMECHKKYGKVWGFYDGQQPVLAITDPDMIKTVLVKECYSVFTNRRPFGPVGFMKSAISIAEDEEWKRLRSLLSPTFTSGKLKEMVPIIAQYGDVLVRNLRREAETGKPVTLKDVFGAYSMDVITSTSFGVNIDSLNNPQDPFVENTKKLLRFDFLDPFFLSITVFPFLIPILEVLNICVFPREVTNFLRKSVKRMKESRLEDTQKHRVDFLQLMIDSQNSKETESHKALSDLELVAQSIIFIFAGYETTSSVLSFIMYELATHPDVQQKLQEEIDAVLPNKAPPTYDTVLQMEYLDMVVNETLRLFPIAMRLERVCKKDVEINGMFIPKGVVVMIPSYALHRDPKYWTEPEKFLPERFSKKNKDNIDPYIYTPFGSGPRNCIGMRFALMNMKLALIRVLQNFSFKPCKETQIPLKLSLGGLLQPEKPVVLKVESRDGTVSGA
T1 sequence (P50750 whole entry, species assumed): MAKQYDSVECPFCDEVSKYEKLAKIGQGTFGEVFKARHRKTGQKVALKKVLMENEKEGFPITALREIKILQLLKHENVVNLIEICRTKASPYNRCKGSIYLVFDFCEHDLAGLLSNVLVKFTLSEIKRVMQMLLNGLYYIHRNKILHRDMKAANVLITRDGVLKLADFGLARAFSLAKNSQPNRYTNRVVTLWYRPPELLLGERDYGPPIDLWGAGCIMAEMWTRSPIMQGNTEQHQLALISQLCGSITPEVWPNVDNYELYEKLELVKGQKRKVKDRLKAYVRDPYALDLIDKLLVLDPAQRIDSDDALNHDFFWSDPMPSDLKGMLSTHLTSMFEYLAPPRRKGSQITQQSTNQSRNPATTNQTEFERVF
T1 sequence (O60563 whole entry partner, species assumed): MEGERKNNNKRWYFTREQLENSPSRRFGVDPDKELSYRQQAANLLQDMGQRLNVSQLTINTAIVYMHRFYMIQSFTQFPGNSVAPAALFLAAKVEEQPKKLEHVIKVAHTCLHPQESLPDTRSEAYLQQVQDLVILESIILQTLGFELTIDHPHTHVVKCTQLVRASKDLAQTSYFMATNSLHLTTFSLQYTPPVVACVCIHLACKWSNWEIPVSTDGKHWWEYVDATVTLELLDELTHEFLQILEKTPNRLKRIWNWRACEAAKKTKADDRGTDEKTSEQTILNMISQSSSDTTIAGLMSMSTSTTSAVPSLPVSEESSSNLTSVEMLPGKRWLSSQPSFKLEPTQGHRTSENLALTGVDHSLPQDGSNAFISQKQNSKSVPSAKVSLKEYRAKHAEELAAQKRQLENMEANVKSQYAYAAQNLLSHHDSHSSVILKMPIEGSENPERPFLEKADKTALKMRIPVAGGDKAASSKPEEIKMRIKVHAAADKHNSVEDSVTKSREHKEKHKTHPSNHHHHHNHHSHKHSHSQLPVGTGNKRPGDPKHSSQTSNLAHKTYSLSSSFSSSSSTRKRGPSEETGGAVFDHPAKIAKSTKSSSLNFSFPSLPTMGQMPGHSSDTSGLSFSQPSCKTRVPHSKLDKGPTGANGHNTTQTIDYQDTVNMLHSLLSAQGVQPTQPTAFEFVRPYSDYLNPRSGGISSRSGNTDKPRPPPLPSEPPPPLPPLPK

`C[C@@H]1COc2c(-c3nc(N[C@@H]4CCOC[C@H]4O)ncc3Cl)cc(F)c3nc(C(C)(C)O)n1c23` (single isomer, unassigned) [Isomer 2 with a retention time of 1.887 min]: the IC50 at 5 min at CYP3A4 was > 30 µM. Also, the IC50 at CDK9/CyclinT1 was > 1 µM. Besides, at human PXR, the fold induction at 24 h, 0.123 µM is 0.99 and the fold induction at 24 h, 10 µM came out at 1.48.

`C[C@H]1COc2c(-c3nc(N[C@@H]4CCOC[C@H]4O)ncc3Cl)cc(F)c3nc(C(C)(C)O)n1c23` (single isomer, unassigned) [Isomer 1 with a retention time of 2.078 min]: the IC50 at 5 min on CYP3A4 is > 30 µM. Also, on CDK9/CyclinT1, the IC50 was > 1 µM. Besides, at human PXR, the fold induction at 24 h, 0.123 µM amounted to 0.87 and the fold induction at 24 h, 10 µM was determined as 1.43.

For the origin of these results see patent EP4567040A1, “CRYSTAL FORM OF FUSED TRICYCLIC DERIVATIVE AND PREPARATION METHOD” (Jiangsu Hengrui Pharmaceuticals Co., Ltd., priority 2022, dated 2024).
